The values that follow come from patent US4254126A, “4-Carbethoxy-carbonilamino-pyrimidines and a process for their preparation” (POLI Industria Chimica S.p.A., priority 1978, dated 1981).

Where two headings read alike, the source gives them in different places. Bounds are passed on as bounds.

What all share (format): in vivo
Assay [1] concerns Passive Cutaneous Anaphylaxis. Nature of the assay: Passive Cutaneous Anaphylaxis (PCA test) in the Rat. To be noted: administered 5 minutes before the antigen. The procedure:
The compounds of general formula (I) are all endowed with an extremely low toxicity (the DL50 per os in rats is higher than 1600 mg/kg for all the compounds) and they are rapidly absorbed through oral administration, so that the DE50 (the dosage capable of reducing the effects of the noxious stimulus by 50%) in the Passive Cutaneous Anaphylaxis Test in the rat is almost the same whether administered orally or intraperitoneally.
(a) Production of antiovalbumin reaginic serum. Male rats (COBS-CD) weighing 300 to 400 g, are immunized by intramuscular injection of 0.1 ml/kg of ovalbumin solution obtained by dissolving 20 mg of ovalbumin (Sigma) in 1 ml of saline and by intraperitoneal injection of 1 ml of pertussis vaccine (Abetin Sclavo). After eleven days the animals are killed, the blood collected and after one night at 4° C., centrifuged and sera stored at -20° C.
(b) PCA test--Male rats (COBS-CD) weighing 125 to 135 g were sensitized by two intradermal injections on the shaved back of 0.1 ml of anti-ovalbumin serum. After 24 hours, 25 mg/kg of ovalbumin and 25 mg/kg of Evans blue are injected intravenously and thirty minutes later the animals are killed, the skin of the back removed and the major and minor diameters of the two spots on the reflected skin are measured.

Assay [2] relates to gastric acid secretion. The assay can be described thus: inhibition of gastric acid secretion in pylorus ligated rats (Shay rats). Particulars: Rattus norvegicus, po, os, 50% inhibition of gastric acid secretion, read-out: Antisecretory and antiulcer activity ED50 Shay. An excerpt:
(§1) The pharmacological study of the antiulcer activity of the compounds, in accordance with the present invention, has been carried out determining the dose which inhibits the gastric acid secretion by 50% (ED50) in pylorus ligated rats (Shay rats) according to the method described by Shay et al., in Gastroenterology 26, 906, 1954, the dose which reduces by 50% (ED50) the indomethacin-induced ulcers according to the procedure described by Leet et al., in Arch. Int. Pharmacodyn. 191, 370, 1971 and the dose which reduces by 50% (ED50) the ulcers by cold and restraint according to the procedure described by Senay and Levine in Proc. Soc. Exp. Biol. Med. 124, 1221, 1967.

The subject of assay [3] is indomethacin-induced ulcers. The assay can be described thus: indomethacin-induced ulcers. Particulars: Rattus norvegicus, po; os, 50% reduction of indomethacin-induced ulcers; read-out: Antisecretory and antiulcer activity ED50 Indometacin.
Description: as §1

Assay [4] concerns ulcers by cold and restraint. Nature of the assay: ulcers by cold and restraint. Particulars: Rattus norvegicus, po; os, 50% reduction of ulcers by cold and restraint; read-out: Antisecretory and antiulcer activity ED50 Restraint.
Description: as §1

Setting [5] is: ip, intraperitoneal, read-out: PCA Test ED50 l.p.
[6] abbreviates: po, os, read-out: PCA Test ED50 os.

In the case of `CCOC(=O)C(=O)Nc1cc(OC)ncn1` [Symbol 907], the ED50 in assay [1] (setting [5]) turned out to be 32 mg/kg; in assay [1] (setting [6]), 100 mg/kg; in assay [2] it was 3.2 mg/kg; in assay [3] it was 4.6 mg/kg; in assay [4] it was 12 mg/kg.

On to `CCOC(=O)C(=O)Nc1cc(OC)nc(C)n1` [Symbol 913], for which the 50% effective dose (ED50) in assay [1] (setting [5]) was below 5 mg/kg; in assay [1] (setting [6]), above 100 mg/kg; in assay [2], 3.6 mg/kg; in assay [3], 4.2 mg/kg; in assay [4], 15 mg/kg.

With `CCOC(=O)C(=O)Nc1cc(OC)nc(-c2ccccc2)n1` [Symbol 921], the ED50 in assay [1] (setting [5]) is 30 mg/kg; in assay [1] (setting [6]), 100 mg/kg; in assay [2] it was 6.2 mg/kg; in assay [3], 15 mg/kg; in assay [4], 25 mg/kg.

On to `CCOC(=O)C(=O)Nc1cc(OCCOC)nc(C)n1` [Symbol 923], for which the 50% effective dose (ED50) turned out to be 25 mg/kg in assay [1] (setting [5]); 70 mg/kg in assay [1] (setting [6]); 4.1 mg/kg in assay [2]; 3.2 mg/kg in assay [3]; 9 mg/kg in assay [4].

Turning to `CCOC(=O)C(=O)Nc1cc(OCCOCc2ccccc2)nc(C)n1` [Symbol 927], the median effective dose (ED50) amounted to 23 mg/kg in assay [1] (setting [5]); 80 mg/kg in assay [1] (setting [6]); 6.4 mg/kg in assay [2]; 14.8 mg/kg in assay [3]; 16 mg/kg in assay [4].

Consider `CCOC(=O)C(=O)Nc1cc(SC)nc(C)n1` [Symbol 928], for which the ED50 was 30 mg/kg in assay [1] (setting [5]); above 100 mg/kg in assay [1] (setting [6]); 7.2 mg/kg in assay [2]; 2 mg/kg in assay [3]; 14 mg/kg in assay [4].

On to `CCOC(=O)C(=O)Nc1cc(SCCOC(=O)C(=O)OCC)nc(C)n1` [Symbol 929], for which the 50% effective dose (ED50) in assay [1] (setting [5]) is 2.4 mg/kg; in assay [1] (setting [6]), 18 mg/kg; in assay [2], 8.4 mg/kg; in assay [3], 22.2 mg/kg; in assay [4], 18 mg/kg.

`CCOC(=O)C(=O)Nc1cc(Cl)ncn1` [Symbol 931]: the 50% effective dose (ED50) in assay [1] (setting [5]) was 24 mg/kg; in assay [1] (setting [6]), above 100 mg/kg; in assay [2], 6.3 mg/kg; in assay [3], 7.2 mg/kg; in assay [4], 22 mg/kg.

In the case of `CCOC(=O)C(=O)Nc1cc(OCCOC)ncn1` [Symbol 932, 4-carbethoxycarbonilamino-6-(β-methoxyethoxy)-pyrimidine], the ED50 in assay [1] (setting [5]) was determined as 10 mg/kg; in assay [1] (setting [6]) it was 26 mg/kg; in assay [2], 2.1 mg/kg; in assay [3], 3.2 mg/kg; in assay [4], 7 mg/kg.

As to `CCOC(=O)C(=O)Nc1ccncn1` [Symbol 933], the 50% effective dose (ED50) in assay [1] (setting [5]) was determined as 32 mg/kg; in assay [1] (setting [6]), 96 mg/kg; in assay [2], 3.8 mg/kg; in assay [3], 4.7 mg/kg; in assay [4] it was 10 mg/kg.

On to `CCOC(=O)C(=O)Nc1cc(OC)nc(OC)n1` [Symbol 934], for which the 50% effective dose (ED50) in assay [1] (setting [5]) was 25 mg/kg; in assay [1] (setting [6]) it was above 100 mg/kg; in assay [2], 4.1 mg/kg; in assay [3], 5.6 mg/kg; in assay [4], 11 mg/kg.

For the compound `CCOC(=O)C(=O)Nc1cc(SCCOC(=O)C(=O)OCC)ncn1` [Symbol 940], the ED50 amounted to 12 mg/kg in assay [1] (setting [5]); 43 mg/kg in assay [1] (setting [6]); 5.2 mg/kg in assay [2]; 3.6 mg/kg in assay [3]; 8 mg/kg in assay [4].

As to `CCOC(=O)CCCSc1cc(NC(=O)C(=O)OCC)ncn1` [Symbol 953], the ED50 in assay [1] (setting [5]) came to 3.2 mg/kg; in assay [1] (setting [6]), 26 mg/kg; in assay [2], 7.2 mg/kg; in assay [3], 8.8 mg/kg; in assay [4], 12 mg/kg.

`CCOC(=O)C(=O)Nc1cc(SCCOC)nc(C)n1` [Symbol 955]: the ED50 in assay [1] (setting [5]) was determined as 6.9 mg/kg; in assay [1] (setting [6]), 25 mg/kg; in assay [2], 2.3 mg/kg; in assay [3], 2.8 mg/kg; in assay [4] it was 7 mg/kg.

On to `CCOC(=O)C(=O)Nc1cc(SCCOC)ncn1` [Symbol 957], for which the ED50 is 5.8 mg/kg in assay [1] (setting [5]); 23 mg/kg in assay [1] (setting [6]); 6.2 mg/kg in assay [2]; 9.4 mg/kg in assay [3]; 14 mg/kg in assay [4].

With `CCOC(=O)C(=O)Nc1cc(OCCOCCOC)ncn1` [Symbol 963], the 50% effective dose (ED50) was found to be 6.2 mg/kg in assay [1] (setting [5]); 24 mg/kg in assay [1] (setting [6]); 6.1 mg/kg in assay [2]; 7.3 mg/kg in assay [3]; 16 mg/kg in assay [4].

Consider `CCOC(=O)C(=O)Nc1cc(SCCOCCOC)ncn1` [Symbol 965], for which the ED50 in assay [1] (setting [5]) stood at 7.3 mg/kg; in assay [1] (setting [6]), 20 mg/kg; in assay [2], 8.3 mg/kg; in assay [3], 6.1 mg/kg; in assay [4] it was 17 mg/kg.
